According to patent US8691982B2, “Pyrazolo[1,5-a]-1,3,5-triazine derivatives, preparation thereof, and therapeutic use thereof” (Centre National de la Recherche Scientifique, priority 2009, dated 2014):
Counter-ions that a name gives are not always drawn.

What was measured:
CDK1/cyclin B = CDK1/cyclin B kinase assay; format: biochemical, starfish (Marthasterias glacialis); details: 15 μM ATP, 30° C., histone H1 substrate
Method: Homogenization buffers: 60 mM β-glycerophosphate, 15 mM p-nitrophenyl phosphate, 25 mM Mops (pH 7.2), 15 mM EGTA, 15 mM MgCl2, 1 mM DTT, 1 mM sodium vanadate, 1 mM NaF, 1 mM phenyl phosphate, 10 μg leupeptin/ml, 10 μg aprotinin/ml, 10 μg soybean trypsin inhibitor/ml and 100 μM benzamidine.
(§1) Buffer C: 60 mM β-glycerophosphate, 15 mM p-nitrophenyl phosphate, 25 mM Mops (pH 7.2), 5 mM EGTA, 15 mM MgCl2, 1 mM DTT, 1 mM sodium vanadate, 1 mM phenyl phosphate, 10 μg leupeptin/ml, 10 μg aprotinin/ml and 100 μM benzamidine.
(§2) Controls were performed with appropriate dilutions of dimethyl sulfoxide.
(§3) ATP (3000 Ci/mmol; 10 mCi/ml) in a final volume of 30 μl. After incubation for 30 minutes at 30° C., aliquotes of 25 μl of the supernatant were spotted onto Whatman P81 phosphocellulose paper filters and, 20 seconds later, the filters were washed five times (for at least five minutes each time) in a solution of 10 ml of phosphoric acid/liter of water. The wet filters were subjected to counting in the presence of an ACS scintillation fluid from Amersham. CDK2/cyclin A (human, recombinant, expressed in insect cells) was assayed as described for CDK1/cyclin B. CDK5/p25 was reconstituted by mixing equal amounts of recombinant mammalian CDK5 and p25 expressed in E. coli as a GST (glutathione-S-transferase) fusion protein and purified by affinity chromatography on glutathione-agarose (p25 is a truncated version of p35, the 35 kDa CDK5 activator). […] DYRK1A (human, recombinant, expressed in E. coli as a GST fusion protein) was purified on glutathione-agarose, assayed as described for CDK1/cyclin B with myelin basic protein (1 mg/ml) as substrate.

[1] = tested on: SH-SY5Y human neuroblastoma cells; assay: SH-SY5Y cell viability (MTS reduction); format: cell-based; details: SH-SY5Y cell line, cell viability by MTS
Method: A Cell Titer 96® kit containing the MTS reagent was purchased from Promega (Madison, Wis., USA). The protease inhibitor cocktail came from Roche and the fetal calf serum (FCS) came from Invitrogen. The reagents not listed came from Sigma, unless otherwise indicated.
The SH-SY5Y human neuroblastoma cell line was grown in a DMEM medium with L-glutamine from Invitrogen (Cergy Pontoise, France), antibiotics and 10% by volume of FCS from Invitrogen. The general culture conditions were a 5% CO2 atmosphere and a temperature of 37° C. The culture plates and other disposable plastic tools were supplied by Corning (Corning, N.Y., USA). The treatments with the compounds of the invention were carried out on cultures in exponential growth over time, and indicated concentrations. The control experiments were carried out also using suitable dilutions of DMSO.
The cell viability was determined by measuring the reduction of 3-(4,5-dimethylthiazol-2-yl)-5-(3-carboxymethoxyphenyl)-2-(4-sulfophenyl)-2H-tetrazolium (MTS).

GSK-3α/β = GSK-3α/β kinase assay; format: biochemical, pig; details: 15 μM ATP, 30° C., buffer A, GS-1 substrate
CK1δ/ε = CK1δ/ε kinase assay; format: biochemical, pig; details: 15 μM ATP, 30° C., CK1-specific peptide substrate
Method: (§4) The blank values were subtracted and the activities calculated as μmoles of phosphate incorporated per 10 minutes of incubation. […] Controls were performed with appropriate dilutions of dimethyl sulfoxide.
as §3

DYRK1A = DYRK1A (Homo sapiens, UniProt Q13627); assay: DYRK1A kinase assay; format: biochemical; details: 15 μM ATP, 30° C., myelin basic protein substrate
Method: as §4, §3

CDK2/cyclin A = molecular target: T1, CDK2/cyclin A (Homo sapiens, UniProt P24941); assay: CDK2/cyclin A kinase assay; format: biochemical; details: 15 μM ATP, 30° C., histone H1 substrate
T1 construct: host or cells: insect cells
Method: as §1, §2, §3

[2] = tested on: Human chronic lymphoid leukemia (B-CLL) lymphocytes; assay: B-CLL cell apoptosis (annexin V / propidium iodide, flow cytometry); format: cell-based; details: B-CLL cells from patients
Method: The CLL cells were isolated from heparinized blood of untreated patients after informed consent.
The mononuclear cells were isolated by centrifugation on a Lymphosep density gradient (Biowest). […] When the percentage of CD19+/CD5+ cells was less than 90%, the B lymphocytes were enriched using the kit II for B-cell enrichment by immunomagnetic depletion of the monocytes, NK cells, granulocytes and T lymphocytes (Miltenyi Biotech).
After incubation, the B-CLL cells were harvested, washed in PBS and resuspended in 100 μl of 1× binding buffer containing FITC-conjugated annexin V and propidium iodide (Beckman Coulter Apoptosis Detection Kit). After incubation for 10 min on ice, the cells were analyzed by flow cytometry and the percentage of cells undergoing apoptosis was determined.

CDK5/p25 = CDK5/p25 (Homo sapiens, UniProt Q00535); assay: CDK5/p25 kinase assay; format: biochemical, mammalian; details: 15 μM ATP, 30° C., histone H1 substrate
Method: as §1, §2, §3

CDK9/cyclin T = molecular target: T2, CDK9/cyclin T (Homo sapiens, UniProt P50750); assay: CDK9/cyclin T kinase assay; format: biochemical; details: 15 μM ATP, 30° C., pRB fragment substrate
T2 construct: host or cells: insect cells

the four kinases assayed = assay: Tests on the four kinases assayed (comparison of enantiomers 34 and 31); format: biochemical; details: 34 versus 31
Method: The kinases were assayed in buffer A or buffer C, at 30° C., at a final ATP concentration of 15 μM. The blank values were subtracted and the activities calculated as μmoles of phosphate incorporated per 10 minutes of incubation. The activities are usually expressed as % (percentage) of maximum activity, i.e. in the absence of inhibitors. Controls were performed with appropriate dilutions of dimethyl sulfoxide.
[…]. J. Biochem. 1997, 243, 527-536. The kinase activity was assayed in buffer C, with 1 mg of histone H1/ml, in the presence of 15 μM of [γ-^33P] ATP (3000 Ci/mmol; 10 mCi/ml) in a final volume of 30 μl. After incubation for 30 minutes at 30° C., aliquotes of 25 μl of the supernatant were spotted onto Whatman P81 phosphocellulose paper filters and, 20 seconds later, the filters were washed five times (for at least five minutes each time) in a solution of 10 ml of phosphoric acid/liter of water. The wet filters were subjected to counting in the presence of an ACS scintillation fluid from Amersham. […]

T2 sequence (P50750 whole entry, the tested form may be a part): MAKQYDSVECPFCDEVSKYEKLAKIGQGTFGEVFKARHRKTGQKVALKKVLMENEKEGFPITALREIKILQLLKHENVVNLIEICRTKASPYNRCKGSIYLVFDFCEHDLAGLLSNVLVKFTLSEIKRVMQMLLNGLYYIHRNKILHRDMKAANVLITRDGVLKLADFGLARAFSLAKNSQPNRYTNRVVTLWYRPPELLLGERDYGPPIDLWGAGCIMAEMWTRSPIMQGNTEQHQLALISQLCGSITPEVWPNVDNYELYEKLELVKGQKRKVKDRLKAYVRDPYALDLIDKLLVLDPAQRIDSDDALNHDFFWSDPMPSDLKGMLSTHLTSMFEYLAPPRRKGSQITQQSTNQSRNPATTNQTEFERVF
T2 sequence (O60563 whole entry partner, the tested form may be a part): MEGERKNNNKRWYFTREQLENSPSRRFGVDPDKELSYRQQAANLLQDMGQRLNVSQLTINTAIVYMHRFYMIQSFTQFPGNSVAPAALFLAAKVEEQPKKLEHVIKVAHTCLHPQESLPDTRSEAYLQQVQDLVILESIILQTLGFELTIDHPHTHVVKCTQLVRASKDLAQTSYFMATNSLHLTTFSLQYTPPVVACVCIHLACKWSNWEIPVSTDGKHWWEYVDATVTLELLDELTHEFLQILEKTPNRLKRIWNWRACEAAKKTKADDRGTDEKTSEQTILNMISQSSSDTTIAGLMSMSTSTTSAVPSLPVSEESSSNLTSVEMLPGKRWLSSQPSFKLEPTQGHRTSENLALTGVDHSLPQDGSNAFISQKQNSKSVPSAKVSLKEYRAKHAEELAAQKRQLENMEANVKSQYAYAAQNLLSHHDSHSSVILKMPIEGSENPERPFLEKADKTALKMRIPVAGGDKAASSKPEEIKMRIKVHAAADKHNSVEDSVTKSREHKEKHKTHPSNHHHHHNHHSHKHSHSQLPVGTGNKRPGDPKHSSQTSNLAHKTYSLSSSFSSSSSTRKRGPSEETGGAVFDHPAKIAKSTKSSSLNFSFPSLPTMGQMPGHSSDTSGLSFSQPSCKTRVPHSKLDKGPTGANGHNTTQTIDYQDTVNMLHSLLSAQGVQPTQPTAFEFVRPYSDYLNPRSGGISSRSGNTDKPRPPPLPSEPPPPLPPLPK
CDK5/p25, sequence (Q00535 whole entry, species assumed): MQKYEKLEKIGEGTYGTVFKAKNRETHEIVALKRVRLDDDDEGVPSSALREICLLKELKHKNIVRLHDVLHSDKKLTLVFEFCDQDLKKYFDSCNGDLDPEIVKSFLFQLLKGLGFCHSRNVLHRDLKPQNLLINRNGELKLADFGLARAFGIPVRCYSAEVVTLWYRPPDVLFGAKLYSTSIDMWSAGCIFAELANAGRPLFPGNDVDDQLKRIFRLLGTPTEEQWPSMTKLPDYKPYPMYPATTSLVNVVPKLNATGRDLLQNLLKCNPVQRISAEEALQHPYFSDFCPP
CDK5/p25, sequence (Q15078 99-307 partner limits assumed, species assumed): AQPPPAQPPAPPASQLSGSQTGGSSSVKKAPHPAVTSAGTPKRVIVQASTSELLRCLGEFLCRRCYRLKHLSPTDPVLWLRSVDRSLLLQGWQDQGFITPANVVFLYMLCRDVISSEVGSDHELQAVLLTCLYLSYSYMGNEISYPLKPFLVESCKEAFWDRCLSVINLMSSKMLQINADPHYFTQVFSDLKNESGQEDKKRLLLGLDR

| Compound | IC50 (CDK1/cyclin B) [µM] | IC50 ([1]; Homo sapiens) [µM] | IC50 (GSK-3α/β) [µM] | IC50 (CK1δ/ε) [µM] | IC50 (DYRK1A) [µM] | IC50 (CDK2/cyclin A) [µM] | IC50 ([2]; Homo sapiens) [µM] | IC50 (CDK5/p25) [µM] | IC50 (CDK9/cyclin T) [µM] | IC50 [1] [µM] | IC50 [2] [µM] | activity compared with enantiomer on the four kinases assayed (the four kinases assayed) |
| --- | --- | --- | --- | --- | --- | --- | --- | --- | --- | --- | --- | --- |
| CC[C@H](CO)Nc1nc(NCc2ccc(-c3ccccc3)cc2)n2ncc(C(C)C)c2n1 [Compound 1, (R)-2-(1-hydroxybut-2-ylamino)-8-isopropyl-4-(4-phenylbenzylamino)pyrazolo[1,5-a]-1,3,5-triazine] | 0.18 | 0.43 | > 10 | 0.21 | 2.2 | 0.22 | 0.189 | 0.18 | 0.093 | – | – | – |
| CC[C@H](CO)Nc1nc(NCc2ccc(-c3ccccn3)cc2)n2ncc(C(C)C)c2n1 [Compound 2, (R)-2-(1-hydroxybut-2-ylamino)-8-isopropyl-4-[4-(pyridin-2-yl)benzylamino]pyrazolo[1,5-a]-1,3,5-triazine] | 0.023 | 0.044 | 4 | 0.21 | 1.8 | 0.028 | 0.032 | 0.04 | 0.073 | – | – | – |
| CC[C@H](CO)Nc1nc(NCc2ccc(-c3ccccn3)cc2)n2ncc(C(C)C)c2n1 [Compound 3, Fumarate salt of (R)-2-(1-hydroxybut-2-ylamino)-8-isopropyl-4-[4-(pyridin-2-yl)benzylamino]pyrazolo[1,5-a]-1,3,5-triazine] | 0.016 | – | 3.1 | 0.13 | 2.2 | 0.021 | – | 0.018 | 0.031 | 0.059 | 0.032 | – |
| CCc1cnn2c(NCc3ccc(-c4ccccn4)cc3)nc(NC[C@H](O)CO)nc12 [Compound 34, (S)-2-(1,2-dihydroxypropan-3-ylamino)-8-ethyl-4-[4-(pyridin-2-yl)benzylamino]pyrazolo[1,5-a]-1,3,5-triazine] | – | < 0.03 | 0.53 | 0.1 | 0.42 | – | – | 0.01 | – | – | – | more active than the derivative 31 |
